Where “and” joins values, the source holds several entries; their conditions need not be identical. Equal values may be shown once. Read-outs that look alike come from different tables or passages of the source.
Tests used:
[1] = oral administration; ref Sezgin-Bayindir et al., 2013; Cai et al., 2014; cited from earlier work
[2] = assay type: in vivo, Sprague-Dawley rats
[3] = In vitro daunomycin cytotoxicity assay; assay type: cell-based; settings: human
[4] = male, Sprague-Dawley, rat, plasma, iv, 2 mg/kg
[5] = male, Sprague-Dawley, rat, plasma, po, 25 mg/kg

Row | Structure (SMILES) | Oral bioavailability of PTX [1] [%] | Clt of PTX ([2]; PTX IV 2 mg/kg, rats, 2 mg/kg) | Relative BA of PTX ([2]; PTX PO 25 mg/kg alone (oral control), rats) [%] | Absolute BA of PTX ([2]; PTX PO 25 mg/kg alone vs IV 2 mg/kg, rats) [%] | Clt/F of PTX ([2]; PTX PO 25 mg/kg alone, rats) [L/h] | AUC(0-inf) [2, 4] [ng·h/mL] | AUC(0-t) [2, 4] [ng·h/mL] | C0 [2, 4] [ng/mL] | Vd [2, 4] [L] | half-life [2, 4] [h] | k el [2, 4] [s⁻¹] | AUC(0-inf) [2, 5] [ng·h/mL] | AUC(0-t) [2, 5] [ng·h/mL] | Cmax [2, 5] [ng/mL] | Tmax [2, 5] [h] | Vd/F [2, 5] [L] | half-life [2, 5] [h] | k el [2, 5] [s⁻¹] | IC50 at 2 h [3] [µM]
1 | CC(=O)O[C@H]1C(=O)[C@@]2(C)[C@H]([C@H](OC(=O)c3ccccc3)[C@]3(O)C[C@H](OC(=O)[C@H](O)[C@@H](NC(=O)c4ccccc4)c4ccccc4)C(C)=C1C3(C)C)[C@]1(OC(C)=O)CO[C@@H]1C[C@@H]2O [PTX, Paclitaxel] | < 5 | 0.328 L/h and 0.328 ± 0.097 L/h | 100.0 | 2.0 | 12.7 ± 2.8 | 1790 ± 522 | 1660 ± 499 | 3330 ± 1160 | 2.06 ± 0.36 | 4.55 ± 1.02 | 4.47e-05 | 564 ± 116 | 409 ± 47.2 | 60.6 ± 10.3 | 4.2 ± 1.1 | 73.6 ± 14.9 | 4.26 ± 1.62 | 5.06e-05 | 
2 | COc1cccc2c1C(=O)c1c(O)c3c(c(O)c1C2=O)C[C@@](O)(C(C)=O)C[C@@H]3O[C@H]1C[C@H](N)[C@H](O)[C@H](C)O1 [DNM, Daunomycin] |  |  |  |  |  |  |  |  |  |  |  |  |  |  |  |  |  |  | 10.4 ± 0.53

From PMC5590800 (Biomolecules & Therapeutics, 2017)
